From patent publication US20250313577A1, “TRICYCLIC PYRIDONES AND PYRIMIDONES” (ERASCA, INC, priority 2022, published 2025)
pIC50: −log10 of the molar value.

Molecular target: T1, KRAS G12C (Homo sapiens, UniProt P01116, G12C)
T1 construct: expressed in transfected cells; host or cells: Ras Initiative (RI) KRAS G12C cells
Test: phospho-ERK HTRF assay in Ras Initiative (RI) KRAS G12C cells
Assay type: cell-based
Settings: phospho-ERK1/2 HTRF, 11-point dose response from 2,500 nM, treatment for either 4 hours or 16 hours, read-out: pERK (RI)
Method: Inhibition of KRAS G12C-Mediates Phospho-ERK1/2 Inhibition by Compounds of Formula I
This Example illustrates that various compounds of the present disclosure inhibit KRAS G12C thereby mediating the downstream inhibition of phospho-ERK1/2.
KRAS G12C mutant cell lines, NCI H358 (ATCC, CRL-5807), and Ras Initiative (R1) KRAS G12C were cultured according to published protocols and maintained at 37° C. in 5% CO2. The phospho-ERK HTRF assay was executed following provider's protocol (CisBio #64AERPEH). NCI-H358 or RI KRAS G12C cells were plated at a density of 50,000 cells per well in a 96-well plate (Corning #3903) in respective medias (for NCI-H358, RPMI+10% FBS+1% Pen/Strep, and for RI KRAS G12C, DMEM+10% FBS+1% Pen/Strep+4 ug/ml Blasticidin) and maintained at 37° C. in 5% CO2. Cells were allowed to adhere overnight and treated the following day with a Tecan D300e Digital Dispenser (Tecan Group Ltd., Switzerland) using an 11-point dose response starting at 2,500 nM of exemplified compounds followed by sequential 1:3 dilutions for either 4 hours or 16 hours. Following compound treatment, the cells were washed once with ice-cold PBS. Cells were lysed by adding 50 μl of lysis buffer (1×) supplemented with 1× Pierce Halt Protease and Phosphatase inhibitor and incubated for 30 minutes at 4° C. with shaking. After lysis, 16 μL of cell lysate from the 96-well cell-culture plate was transferred to a 384-well plate (Perkin Elmer #6007290). The premixed antibody solution was prepared by mixing (vol/vol) advanced phospho-ERK1/2 d2 antibody and advanced phospho-ERK1/2 Eu Cryptate antibody. The premixed antibody solution ([…]) was added to the detection plate containing cell lysate. The detection plate was incubated overnight at 4° C., the HTRF signal was read the next day by using either a Spectramax M5 or Spectramax i3 microplate reader (Molecular Devices, San Jose, CA, USA), and data was processed according to manufacturer's protocol.
Compounds prepared according to the preceding procedures and characterized for inhibition of p-ERK according to the protocol provided herein are summarized in Table 3: […]

Molecule | pIC50
C=CC(=O)N1[C@H](C)CN(c2nc(=O)n3c4c(c(-c5ccc(F)cc5)c(C(F)(F)F)cc24)SC[C@@H](c2cncc(F)c2)C3)C[C@@H]1C [Example 126, (S)-8-((3S,5R)-4-acryloyl-3,5-dimethylpiperazin-1-yl)-11-(4-fluorophenyl)-3-(5-fluoropyridin-3-yl)-10-(trifluoromethyl)-3,4-dihydro-2H,6H-[1,4]thiazepino[2,3,4-ij]quinazolin-6-one] | 8.70 to 9.30
(3R,11S)-8-((3S,5R)-4-acryloyl-3,5-dimethylpiperazin-1-yl)-11-(5-chloro-2,4-difluorophenyl)-3-((S)-3,4-dihydropyridin-4-yl)-10-(trifluoromethyl)-3,4-dihydro-2H,6H-[1,4]thiazepino[2,3,4-ij]quinazolin-6-one [Example 101B] | 6.60 to 7.70
